Data: US6573275B1, “Bicyclic amines” (Syngenta Limited, priority 1995, dated 2003)

What follows are molecules tested on peach aphid (Myzus persicae) (assay: Insecticidal test against peach aphid, infested Chinese cabbage leaves sprayed). Details: peach aphid (Myzus persicae) on Chinese cabbage leaves, sprayed with 500 ppm composition unless otherwise stated, mortality assessed after 3 days.
Type: in vivo
Procedure: This Example illustrates the insecticidal properties of the compounds of Formula I. The activity of the compounds of Formula I was determined using a variety of pests. The pests were treated with a liquid composition containing 500 parts per million (ppm) by weight of the compound unless otherwise stated. The compositions were made by dissolving the compound in acetone and ethanol (50:50) mixture and diluting the solutions with water containing 0.05% by weight of a wetting agent sold under the trade name “SYNPERONIC” NP8 until the liquid composition contained the required concentration of the compound. “SYNPERONIC” is a Registered Trade Mark.
The test procedure adopted with regard to each pest was basically the same and comprised supporting a number of the pests on a medium which was usually a substrate, a host plant or a foodstuff on which the pests feed, and treating either or both the medium and the pests with the compositions. The mortality of the pests was then assessed at periods usually varying from two to five days after the treatment.
In this test Chinese cabbage leaves were infested with aphids, the infested leaves were sprayed with the test composition, and the mortality assessed after 3 days.
`CC(C)OC(=O)N1C2CCC1CC(C#N)(c1cncc(Cl)c1)C2` (stereo not shown) [Compound 111] was tested, and the “Score (grading of mortality)” value was “A (A indicates 80-100% mortality)”. `N#CC1(c2cncc(Cl)c2)CC2CCC(C1)N2CCC=C(F)F` (stereo not shown) [Compound 218] was tested, and the “Score (grading of mortality)” value was “A (A indicates 80-100% mortality)”. `N#CC1(c2cncc(Cl)c2)CC2CCC(C1)N2c1cncc(Cl)c1` (stereo not shown) [Compound 155] was tested, and the “Score (grading of mortality)” value was “A (A indicates 80-100% mortality)”. `CN1C2CCC1CC(C#N)(c1cc(-c3ccncn3)ncn1)C2` (stereo not shown) [Compound 200] was tested, and the “Score (grading of mortality)” value was “A (A indicates 80-100% mortality)”. For `N#CC1(c2cncc(Cl)c2)CC2CCC(C1)N2Cc1c(F)cccc1F` (stereo not shown) [Compound 228], the “Score (grading of mortality)” value was “A (A indicates 80-100% mortality)”. `Cc1nc(CN2C3CCC2CC(C#N)(c2cncc(Cl)c2)C3)cs1` (stereo not drawn) [Compound 123, exo-3-(5-chloropyrid-3-yl)-endo-3-cyano-8-((2-methylthiazol-4-yl)methyl)-8-azabicyclo[3.2.1]octane] was tested, and the “Score (grading of mortality)” value was “A (A indicates 80-100% mortality)”. In the case of `N#CC1(c2cncc(Cl)c2)CC2CCC(C1)N2Cc1cccnc1` (stereo not shown) [Compound 118], the “Score (grading of mortality)” value is reported as “A (A indicates 80-100% mortality)”. With `N#CC1(c2cncc(Cl)c2)CC2CCC(C1)N2CC(F)(F)C(F)(F)C(F)(F)F` (stereo not shown) [Compound 132] the “Score (grading of mortality)” value was “A (A indicates 80-100% mortality)”. For `N#CC1(c2cncc(Cl)c2)CC2CCC(C1)N2c1ncccn1` (stereo not shown) [Compound 182], the “Score (grading of mortality)” value was “A (A indicates 80-100% mortality)”. For `CN1[C@@H]2CC[C@H]1C[C@](C#N)(c1cc(Cl)nc(NN)c1)C2` [Compound 66, exo-3-(2-chloro-6-hydrazinopyrid-4-yl)-endo-3-cyano-8-methyl-8-azabicyclo[3.2.1]octane], the “Score (grading of mortality)” value was “C (C indicates less than 40% mortality)”. In the case of `CN1C2CCC1CC(C#N)(c1ccncc1)C2` (stereo not drawn) [Compound 67, exo-3-(pyrid-4-yl)-endo-3-cyano-8-methyl-8-azabicyclo[3.2.1]octane], the “Score (grading of mortality)” value is reported as “A (A indicates 80-100% mortality)”. `CCOC(=O)N1C2CCC1CC(C#N)(c1cncc(Cl)c1)C2` (stereo not shown) [Compound 84] was tested, and the “Score (grading of mortality)” value was “A (A indicates 80-100% mortality)”. In the case of `CC(C)(C)NC(=O)N1C2CCC1CC(C#N)(c1cncc(Cl)c1)C2` (stereo not drawn) [Compound 146, exo-3-(5-chloropyrid-3-yl)-endo-3-cyano-8-(tert-butylcarbamyl)-8-azabicyclo[3.2.1]octane], the “Score (grading of mortality)” value is reported as “A (A indicates 80-100% mortality)”. `CN1C2CCC1CC(C#N)(c1cncc(C#N)c1)C2` (stereo not shown) [Compound 304] was tested, and the “Score (grading of mortality)” value was “A (A indicates 80-100% mortality)”. `N#CC1(c2cncc(Cl)c2)CC2CCC(C1)N2Cc1c(Cl)cccc1Cl` (stereo not shown) [Compound 260] was tested, and the “Score (grading of mortality)” value was “A (A indicates 80-100% mortality)”. For `N#CC1(c2cncc(Cl)c2)CC2CCC(C1)N2Cc1cccc(Oc2ccc(F)cc2)c1` (stereo not shown) [Compound 269], the “Score (grading of mortality)” value was “A (A indicates 80-100% mortality)”. `CC(C)(C)c1ccc(CN2C3CCC2CC(C#N)(c2cncc(Cl)c2)C3)cc1` (stereo not shown) [Compound 246] was tested, and the “Score (grading of mortality)” value was “A (A indicates 80-100% mortality)”. For `CCCN1C2CCC1CC(C#N)(c1cccnc1)C2` (stereo not drawn) [Compound 42, exo-3-(pyrid-3-yl)-endo-3-cyano-8-(prop-1-yl)-8-azabicyclo[3.2.1]octane], the “Score (grading of mortality)” value was “A (A indicates 80-100% mortality)”. `COC(=O)c1cccc(CN2C3CCC2CC(C#N)(c2cncc(Cl)c2)C3)c1` (stereo not shown) [Compound 241] was tested, and the “Score (grading of mortality)” value was “A (A indicates 80-100% mortality)”. In the case of `N#CC1(c2cncc(Cl)c2)CC2CCC(C1)N2S(=O)(=O)c1ccccc1` (stereo not shown) [Compound 112], the “Score (grading of mortality)” value is reported as “B (B indicates 40-79% mortality)”. In the case of `C#Cc1cncc(C2(C#N)CC3CCC(C2)N3C)c1` (stereo not drawn) [Compound 193, exo-3-(5-ethynylpyrid-3-yl)-endo-3-cyano-8-methyl-8-azabicyclo[3.2.1]octane], the “Score (grading of mortality)” value is reported as “A (A indicates 80-100% mortality)”. With `N#CC1(c2cncc(Cl)c2)CC2CCC(C1)N2c1ccccc1` (stereo not shown) [Compound 74] the “Score (grading of mortality)” value was “A (A indicates 80-100% mortality)”. With `COc1cncc(C2(C#N)CC3CCC(C2)N3)c1` (stereo not shown) [Compound 172] the “Score (grading of mortality)” value was “A (A indicates 80-100% mortality)”. `COc1cncc(C2(C#N)CC3CCC(C2)N3C)n1` (stereo not shown) [Compound 214] was tested, and the “Score (grading of mortality)” value was “A (A indicates 80-100% mortality)”. In the case of `C=C(OCC)c1cncc(C2(C#N)CC3CCC(C2)N3C)c1` (stereo not drawn) [Compound 195, exo-3-(5-(1-ethoxyvinyl)pyrid-3-yl)-endo-3-cyano-8-methyl-8-azabicyclo[3.2.1]octane], the “Score (grading of mortality)” value is reported as “A (A indicates 80-100% mortality)”. For `CN1C2CCC1CC(C#N)(c1cccc(F)c1)C2` (stereo not shown) [Compound 53], the “Score (grading of mortality)” value was “A (A indicates 80-100% mortality)”. With `CN1C2CCC1CC(C#N)(c1cncc(Cl)c1)C2` (stereo not drawn) [Compound 60, exo-3-(5-chloropyrid-3-yl)-endo-3-cyano-8-methyl-8-azabicyclo[3.2.1]octane] the “Score (grading of mortality)” value was “A (A indicates 80-100% mortality)”. In the case of `N#CC1(c2cncc(Cl)c2)CC2CCC(C1)N2Cc1cccc(Br)c1` (stereo not shown) [Compound 240], the “Score (grading of mortality)” value is reported as “A (A indicates 80-100% mortality)”. With `CC(=O)OCC(C)(c1ccccc1)N1C2CCC1CC(C#N)(c1cncc(Cl)c1)C2` (stereo not drawn) [Compound 178, exo-3-(5-chloropyrid-3-yl)-endo-3-cyano-8-(2-phenyl-3-acetoxyprop-2-yl)-8-azabicyclo[3.2.1]octane] the “Score (grading of mortality)” value was “A (A indicates 80-100% mortality)”. With `C=COC(=O)N1[C@@H]2CC[C@H]1C[C@](C#N)(c1cncc(Cl)c1)C2` [Compound 69, exo-3-(5-chloropyrid-3-yl)-endo-3-cyano-8-(vinyloxycarbonyl)-8-azabicyclo[3.2.1]octane] the “Score (grading of mortality)” value was “A (A indicates 80-100% mortality)”. `CC(c1ccccc1)(C(O)C#N)N1C2CCC1CC(C#N)(c1cncc(Cl)c1)C2` (stereo not drawn) [Compound 192, exo-3-(5-chloropyrid-3-yl)-endo-3-cyano-8-(1-hydroxy-1-cyano-2-phenylprop-2-yl)-8-azabicyclo[3.2.1]octane] was tested, and the “Score (grading of mortality)” value was “A (A indicates 80-100% mortality)”. `CN1C2CCC1CC(C#N)(c1cc(F)cc(F)c1)C2` (stereo not drawn) [Compound 2, exo-3-(3,5-difluorophenyl)-endo-3-cyano-8-methyl-8-azabicyclo[3.2.1]octane] was tested, and the “Score (grading of mortality)” value was “A (A indicates 80-100% mortality)”. `C=CC(=O)OCCN1C2CCC1CC(C#N)(c1cncc(Cl)c1)C2` (stereo not shown) [Compound 287] was tested, and the “Score (grading of mortality)” value was “A (A indicates 80-100% mortality)”. For `N#CC1(c2cncc(Cl)c2)CC2CCC(C1)N2C(=O)c1ccc(Cl)cc1` (stereo not shown) [Compound 97], the “Score (grading of mortality)” value was “C (C indicates less than 40% mortality)”. In the case of `CCCCCCN1C2CCC1CC(C#N)(c1cncc(Cl)c1)C2` (stereo not drawn) [Compound 81, exo-3-(5-chloropyrid-3-yl)-endo-3-cyano-8-(n-hexyl)-8-azabicyclo[3.2.1]octane], the “Score (grading of mortality)” value is reported as “A (A indicates 80-100% mortality)”. In the case of `CCOC(=O)c1ccc(N2C3CCC2CC(C#N)(c2cncc(Cl)c2)C3)cc1` (stereo not shown) [Compound 162], the “Score (grading of mortality)” value is reported as “C (C indicates less than 40% mortality)”. For `N#CC1(c2cc(F)cc(F)c2)CC2CCC(C1)N2Cc1cccnc1` (stereo not shown) [Compound 15], the “Score (grading of mortality)” value was “A (A indicates 80-100% mortality)”. `N#CC1(c2cncc(Cl)c2)CC2CCC(C1)N2CC(F)(F)C(F)(F)F` (stereo not shown) [Compound 130] was tested, and the “Score (grading of mortality)” value was “A (A indicates 80-100% mortality)”. For `CC(C)NC(C)(CN1C2CCC1CC(C#N)(c1cncc(Cl)c1)C2)c1ccccc1` (stereo not drawn) [Compound 191, exo-3-(5-chloropyrid-3-yl)-endo-3-cyano-8-(2-(isopropylamino)-2-phenylprop-1-yl)-8-azabicyclo[3.2.1]octane], the “Score (grading of mortality)” value was “A (A indicates 80-100% mortality)”. In the case of `N#CC1(c2cncc(Cl)c2)CC2CCC(C1)N2c1nc(CCl)ns1` (stereo not shown) [Compound 167], the “Score (grading of mortality)” value is reported as “A (A indicates 80-100% mortality)”. `N#CC1(c2cncc(Cl)c2)CC2CCC(C1)N2c1ccnc(Cl)n1` (stereo not shown) [Compound 187] was tested, and the “Score (grading of mortality)” value was “C (C indicates less than 40% mortality)”. `CN1C2CCC1CC(C#N)(c1ccc([N+](=O)[O-])cc1F)C2` (stereo not shown) [Compound 52] was tested, and the “Score (grading of mortality)” value was “C (C indicates less than 40% mortality)”. For `N#CC1(c2cncc(Cl)c2)CC2CCC(C1)N2Cc1ccccn1` (stereo not drawn) [Compound 117, exo-3-(5-chloropyrid-3-yl)-endo-3-cyano-8-(pyrid-2-ylmethyl)-8-azabicyclo[3.2.1]octane], the “Score (grading of mortality)” value was “A (A indicates 80-100% mortality)”. `N#CC1(c2cncc(Cl)c2)CC2CCC(C1)N2C(=O)OCc1ccccc1` (stereo not shown) [Compound 91] was tested, and the “Score (grading of mortality)” value was “A (A indicates 80-100% mortality)”. In the case of `N#CCN1C2CCC1CC(C#N)(c1cccnc1)C2` (stereo not shown) [Compound 49], the “Score (grading of mortality)” value is reported as “A (A indicates 80-100% mortality)”. In the case of `N#CC1(c2cncc(Cl)c2)CC2CCC(C1)N2C(=O)Nc1ccc(F)c(Cl)c1` (stereo not shown) [Compound 154], the “Score (grading of mortality)” value is reported as “B (B indicates 40-79% mortality)”. With `N#CC1(c2cncc(Cl)c2)CC2CCC(C1)N2C(=O)c1cnccc1C(F)(F)F` (stereo not shown) [Compound 157] the “Score (grading of mortality)” value was “C (C indicates less than 40% mortality)”. For `N#CC1(c2cncc(Cl)c2)CC2CCC(C1)N2Cc1ccc(F)c(Cl)c1` (stereo not drawn) [Compound 109, exo-3-(5-chloropyrid-3-yl)-endo-3-cyano-8-(3-chloro-4-fluorobenzyl)-8-azabicyclo[3.2.1]octane], the “Score (grading of mortality)” value was “A (A indicates 80-100% mortality)”. For `N#CC1(c2cccnc2)CC2CCC(C1)N2c1ccccc1` (stereo not shown) [Compound 61], the “Score (grading of mortality)” value was “A (A indicates 80-100% mortality)”.
